Key:
[1] = tested on: MRSA ATCC 33591; test: Antimicrobial-resistance test; assay type: cell-based, methicillin-resistant Staphylococcus aureus; conditions: for increase in MIC after continuous 14 passages exposure: MRSA ATCC 33591, 1/2 × MIC
[2] = tested on: K. pneumoniae ATCC 700603; test: Antimicrobial-resistance test; assay type: cell-based, Klebsiella pneumoniae; conditions: 1/2 × MIC
[3] = tested on: MRSA ATCC 33591; test: ROS accumulation assay; assay type: cell-based, methicillin-resistant Staphylococcus aureus; conditions: 2 × MIC and 4 × MIC
[4] = tested on: MRSA ATCC 33591; test: Bacteria-induced pneumonia model; assay type: in vivo, Kunming mice; conditions: MRSA ATCC 33591 pneumonia model
[5] = tested on: K. pneumoniae ATCC 700603; test: ROS accumulation assay; assay type: cell-based, Klebsiella pneumoniae; conditions: 1 ×, 2 ×, 4 × MIC
[6] = tested on: K. pneumoniae ATCC 700603; test: Bacteria-induced pneumonia model; assay type: in vivo, Kunming mice
[7] = RT-qPCR of Cystatin C, Lipocalin 2, Havcr1 mRNA in kidney; assay type: in vivo, Kunming mice; conditions: AMP 1003 20 or 30 mg/kg; polymyxin B 20 mg/kg
[8] = Renal tubular injury score; conditions: AMP 1003 20 or 30 mg/kg; polymyxin B 20 mg/kg; score 0-5
[9] = ELISA of NGAL, Cystatin C and Kim-1 in serum and urine; conditions: 20 mg/kg or 30 mg/kg; 7 days
[10] = In vivo toxicity assay, single intraperitoneal injection
[11] = tested on: multidrug-resistant bacteria; conditions: cited from earlier work
[12] = tested on: mammalian cells; conditions: cited from earlier work

Molecule: CNC(C)C1CCC(N)C(OC2C(N)CC(N)C(OC3OCC(C)(O)C(NC)C3O)C2O)O1 (centres unmarked) [Gentamicin]
- increase in MIC after continuous 14 passages exposure [1]: up to 128 fold
- increase in MIC (cross-resistance) ([1]; final generation of MRSA ATCC 33591 treated with the peptide for 14 passages): 128 fold
- increase in MIC after continuous 14 passages exposure [2]: up to 512 fold

Molecule: C[C@@H](O)[C@H]1C(=O)N2C(C(=O)O)=C(SCCN=CN)C[C@H]12 [Imipenem]
- increase in MIC after continuous 14 passages exposure [1]: up to 8 fold
- increase in MIC after continuous 14 passages exposure [2]: up to 16 fold

Molecule: CN(C)c1ccc(O)c2c1C[C@H]1C[C@H]3[C@H](N(C)C)C(O)=C(C(N)=O)C(=O)[C@@]3(O)C(O)=C1C2=O [Minocycline]
- increase in MIC after continuous 14 passages exposure [2]: up to 8 fold

Molecule: CN[C@H](CC(C)C)C(=O)N[C@H]1C(=O)N[C@@H](CC(N)=O)C(=O)N[C@H]2C(=O)N[C@H]3C(=O)N[C@H](C(=O)N[C@H](C(=O)O)c4cc(O)cc(O)c4-c4cc3ccc4O)[C@H](O)c3ccc(c(Cl)c3)Oc3cc2cc(c3O[C@@H]2O[C@H](CO)[C@@H](O)[C@H](O)[C@H]2O[C@H]2C[C@](C)(N)[C@H](O)[C@H](C)O2)Oc2ccc(cc2Cl)[C@H]1O [Vancomycin]
- ROS accumulation [3]: no such effect
- lung histology (H&E) [4]: substantially alleviated these pathological changes

Molecule: Polymyxin B
- ROS accumulation [5]: ROS elevation was observed only at 2 × MIC and 4 × MIC
- lung histology (H&E) ([6]; K. pneumoniae ATCC 700603 pneumonia model): substantially alleviated these pathological changes
- decrease of bacterial load in the lungs ([6]; K. pneumoniae ATCC 700603 pneumonia, 5 mg/kg i.p. at 4, 8, 12 h, 24 h, n = 6): 1.58 log10CFU
- Cystatin C, Lipocalin 2 and Havcr1 mRNA in the kidneys [7]: notable increase in Cystatin C and Lipocalin 2 mRNA levels
- renal tubular injury scores [8]: significantly higher injury scores than normal mice
- NGAL, Cystatin C and Kim-1 levels in serum or urine [9]: did not cause noticeable changes
- organ indices (heart, liver, spleen, lung, kidney) ([10]; 7 days, vs control group): higher than that in the control group
- BUN and CREA levels ([10]; 7 days, AMP 1003 20, 30 or 40 mg/kg, polymyxin B 20 mg/kg): comparable to that of control group
- hepatotoxicity (ALT, AST) ([10]; 7 days, AMP 1003 all doses, polymyxin B 20 mg/kg): no apparent hepatotoxicity
- organ histology (H&E) ([10]; AMP 1003: only at 40 mg/kg): more severe tissue damage

Molecule: melittin
- MIC [11]: 1 to 16 µM
- concentration causing cytotoxicity and hemolysis [12]: 2000 nM
